Results taken from US20110144014A1, “CYTOKINE RECEPTOR MODULATORS AND USES THEREOF” (CENTRE HOSPITALIER UNIVERSITAIRE SAINTE-JUSTINE, priority 2005, published 2011).
Where a SMILES comes first, the peptide text is derived from it. [ ]: non-standard residue; d: D form.

Key:
[1] = molecular target: T1, IL-1R/IL-1RacP (Rattus norvegicus, UniProt Q02955+Q63621); assay: IL-1β induced hypotension in rats; assay type: in vivo
T1 construct: 300 g Sprague-Dawley rats were anesthetized with isoflurane; from tissue; host or cells: whole animal (Sprague-Dawley rat)
T1 sequence (Q02955 20-576): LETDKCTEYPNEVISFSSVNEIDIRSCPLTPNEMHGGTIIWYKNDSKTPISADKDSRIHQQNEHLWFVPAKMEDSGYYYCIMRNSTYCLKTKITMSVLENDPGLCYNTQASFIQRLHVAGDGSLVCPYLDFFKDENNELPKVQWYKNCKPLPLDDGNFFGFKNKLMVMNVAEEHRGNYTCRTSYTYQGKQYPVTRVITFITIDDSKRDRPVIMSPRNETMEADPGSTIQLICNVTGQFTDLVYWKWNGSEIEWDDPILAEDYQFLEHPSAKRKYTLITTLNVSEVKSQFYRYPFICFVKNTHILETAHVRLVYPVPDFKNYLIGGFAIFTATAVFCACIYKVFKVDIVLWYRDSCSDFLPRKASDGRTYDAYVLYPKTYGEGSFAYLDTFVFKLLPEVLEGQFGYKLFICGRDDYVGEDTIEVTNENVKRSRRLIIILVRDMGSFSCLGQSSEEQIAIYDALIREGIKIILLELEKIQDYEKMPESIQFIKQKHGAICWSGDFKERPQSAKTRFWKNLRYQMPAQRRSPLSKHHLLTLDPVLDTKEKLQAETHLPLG
T1 sequence (Q63621 21-570): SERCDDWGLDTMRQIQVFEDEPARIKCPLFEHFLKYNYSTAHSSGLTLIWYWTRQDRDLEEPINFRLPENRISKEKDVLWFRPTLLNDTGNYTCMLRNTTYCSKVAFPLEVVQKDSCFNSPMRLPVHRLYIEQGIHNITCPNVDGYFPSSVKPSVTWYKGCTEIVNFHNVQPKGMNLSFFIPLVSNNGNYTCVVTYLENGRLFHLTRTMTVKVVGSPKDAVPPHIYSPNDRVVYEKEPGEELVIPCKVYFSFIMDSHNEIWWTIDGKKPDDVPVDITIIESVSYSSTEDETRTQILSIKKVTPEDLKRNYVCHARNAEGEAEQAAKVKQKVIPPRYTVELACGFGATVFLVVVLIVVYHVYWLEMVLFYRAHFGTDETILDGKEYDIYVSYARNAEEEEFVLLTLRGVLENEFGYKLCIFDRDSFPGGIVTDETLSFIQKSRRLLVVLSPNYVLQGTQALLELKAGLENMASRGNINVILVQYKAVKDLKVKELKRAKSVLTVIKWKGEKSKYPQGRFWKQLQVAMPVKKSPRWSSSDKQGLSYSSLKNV
Method: The goal of the next experiment was to verify whether the identified peptides can reverse the physiological actions of the natural cytokine in vivo either by injecting them through the jugular or directly in the stomach (to verify the stability of the peptide through the digestive tractus). 300 g Sprague-Dawley rats were anesthetized with isoflurane (2.5-4%). IL-1β was injected through the jugular. Blood was taken from the carotid for further analyses before and after (10 minutes) every injection. Peptides were then injected either directly in the stomach with a catheter or in the jugular at the concentration desired. Arterial blood pressure and other physiological characteristics were monitored at all times.
The API-101 derivatives, API-101.10 (and others) were also tested to assess whether they could reverse the physiological actions of the natural ligand in vivo by injecting the derivative through the jugular or directly into the stomach (to verify the stability of the peptide through the digestive tract). […] Arterial blood pressure and heart rate were continuously monitored (Gould) while temperature and blood gases (Radiometer) were measured for routine analysis as previously described (Li et al., Am. J. Physiol. 273:R1283-R1290, 1997; Hardy et al., Pediatr. Res. 46:375-382, 1999; Najarian et al., Circ. Res. 87:1149-1156, 2000). […]

[2] = molecular target: T2, IL-1R (Rattus norvegicus, UniProt Q02955); assay: Cross-linking and radioligand binding of I125-API-101.10 on thymocytes
T2 construct: Thymocytes freshly isolated from rat thymus; endogenous in cells; host or cells: freshly isolated rat thymocytes
T2 sequence (Q02955 20-576): T1 sequence (Q02955 20-576)
T2 sequence (Q63621 21-570 partner): T1 sequence (Q63621 21-570)
Description: Thymocytes freshly isolated from rat thymus were resuspended at a concentration of 10^7 cell/ml in PBS (phosphate buffered saline) buffer pH 8.0 (reaction buffer) and washed three times with ice-cold reaction buffer. The reaction mixture for each sample contained: 10^6 cells and 10^7 cpm of 125API-101.10. One sample also contained […] of cold API-101.10 peptide. In the negative control HEK-293 cells containing a negligible amount of IL-1R were used. Each sample volume was then raised to 250 μl with reaction buffer. Samples were incubated at room temperature and/or 37° for 45 minutes to allow peptide binding. The non-permeable cross-linker BS3 (Bis(sulfosuccinimidyl)suberate) was then added to a final concentration of 2.5 mM and samples were incubated at 4° C. for 30 minutes to minimize active internalization of BS3 (11.4 Å) (Pierce) (Partis, J. Prot. Chem. 293:263-277, 1983; Cox et al., J. Immunol. 145:1719-1726, 1990; and Knoller et al., J. Biol. Chem. 266:2795-2804, 1991). The reaction was quenched with 20 mM TRIS pH 7.5 for 15 minutes at room temperature. Cells were centrifuged at 4000 rpm for 10 minutes, lysed for 30 minutes on ice with 150 μl of RIPA buffer (50 mM Tris HCl pH7.4; 150 mM NaCl; 1 mM EDTA; 2 mM Na3VO4; 1 mM NaF; 1% NP-40; 0.25% Nadeoxycholate). […] Radioactivity was determined is every cell lysate with a Packard CobraII autogamma counter.

For CC(C)C[C@@H](NC(=O)[C@@H](CCC(=O)O)NC(=O)[C@H](NC(=O)[C@H](NC(=O)[C@@H](Cc1ccc(O)cc1)NC(=O)[C@H](N)CCCNC(=N)N)[C@H](C)O)C(C)C)C(=O)N[C@H](C)C(N)=O [API-101.10, RYTVELA] (H-[dR][dY][dT][dV][dE][dL][dA]-NH2; N-terminus and C-terminus assumed), the “reduction of IL-1β induced hypotension” value ([1]; directly into the stomach, 10^−5M) was 60%, the “prevention of IL-1β induced hypotension” value ([1]; jugular vein injection, 10^−8M, IL-1β 5 μg/kg) was 95% and the “displacement of radioactive IL-1α” value ([2]; I125-IL-1α 100 pM, 101.10 500 nM) was “unable to displace”. For the same compound, the “displacement of 125I-API-101.10 by non-radioactive peptide” value ([2]; cross-linking, autoradiogram) was “displace almost all”.
